Measured values from US12600705B2, “Heat shock protein modulators and anti-Huntington disease therapeutic agents” (UNIVERSITY OF PITTSBURGH-OF THE COMMONWEALTH SYSTEM OF …, priority 2020, dated 2026).

Experiments:
[1] = system: HEK293 cells that express an HTT exon containing 17 glutamine repeats (HTT17Q-mCherry); experiment: Huntington's Disease (HD) model: protein aggregates (puncta) per cell in HEK293H cells transfected with HTT17Q-mCherry; conditions: 6 h; for Effectiveness compared to MAL1-271 (Less/Similar/More) / Effectiveness compared to the MAL1-271 positive control: 10 μM; for Effectiveness compared to MAL1-271 (Less/Similar/More): blunting formation of toxic aggregates; for Effect on aggregate suppression compared to the MAL1-271 positive control: Example 1, FIG. 2, 10 μM compound; for Effectiveness compared to the MAL1-271 positive control: Example 2
Description: Cells were stained for confocal microscope imaging with 4′,6-diamidino-2-phenylindole (DAPI), a fluorescent dye with high affinity to adenine-thymine rich DNA regions. A bright spot detection tool was used to identify and quantify the number of protein aggregates (“dots”) per cell.
Biological Assays: For HD assays, HEK293H cells were grown in DMEM (Sigma-Aldrich, Saint Louis, MO) supplemented with 10% fetal bovine serum (GE Healthcare Hyclone) and 1% penicillin/streptomycin (Thermo Fisher Scientific, Waltham, MA) at 37° C. and at a 5% CO2 atmosphere. Cells were seeded at 250,000 cells/plate in Poly-D-Lysine Coated 35 mm MatTek dishes (P35GC-1.5-10-C, MatTek Corporation, Ashland, MA). After 24 h growth, a total of 4 μg of mCherry tagged-polyglutamine-expanded (17-polyQ-expanded) huntingtin (HTT) was introduced using Lipofectamine 2000 (Invitrogen, Thermo Fisher Scientific) according to the manufacturer's instructions. […] The following day, cells were treated with vehicle (DMSO) as control or with 10 μM of the examined compounds for 6 h. The cells were then washed with PBS and fixed in 4% formaldehyde for 15 min at room temperature. Finally, cells were stained with DAPI (1:250 in PBS) for 4 h and maintained in PBS for confocal microscope imaging.
Complete volumes of cells were acquired at 0.5-μm steps, and volumes were reconstructed and analyzed using Nikon's NIS-Elements software (Nikon Instrument, Melville, NY). Bright spot detection tool was used to identify and quantify the number of protein aggregates (“dots”) per cell. A non-parametric Kruskal-Wallis test analysis was performed using Prism software (GraphPad, La Jolla, CA). Statistically significant differences between control (DMSO) and compound treated samples are indicated by asterisks in figure. To obtain representative images from this experiment, maximum intensity projections of 0.5-μm steps though the entire cell were generated using Nikon's NIS-Elements software.
Cells were stained for confocal microscope imaging with 4′,6-diamidino-2-phenylindole (DAPI) and bright spot detection tool was used to identify and quantify the number of protein aggregates (“dots”) per cell.

HDAC 1-3 = HDAC 1-3 assay (BioVision kit, HeLa nuclear extract); conditions: for Percent inhibition HDAC 1-3: Compound tested at 1 uM
Description: For HDAC 1-3 assays, kits from BioVision Incorporated (https://www.biovision.com/) were used and their recommended protocols followed. […] Each compound was dissolved in DMSO to generate a 100 μM stock solution, then diluted using HPLC-grade water to prepare 10 μM, 2 μM, and 1 μM solutions. These solutions were used for the assays. […] Assays utilized a BioTek Synergy H1 microplate reader and black Nunc MicroWell 96-well optical-bottom plates with polymer base.
HDAC 1-3: 10 μL of each diluted compound (10 μM) and 40 μL of HPLC-grade water were mixed and added into a well on the plate. […] Then, 50 μL of the reaction mixture was added to each well and the solution was mixed thoroughly. The reaction mixture consisted of 500 μL of 10×HDAC Assay buffer, 100 μL of HeLa nuclear extract, 250 μL of HDAC substrate, and 1.65 mL of HPLC-grade water. The plate was then warmed in an incubator at 37° C. with a rocker platform and was incubated for 30 min. After the incubation, 10 μL of Lysine Developer solution was added to each well. The plate was kept in the incubator for an additional 30 min. Afterwards, the plate was analyzed using a BioTek Synergy H1 microplate reader, taking two independent readings per well that were subsequently averaged.

HDAC 6 = biological target: T1, HDAC 6 (Homo sapiens, UniProt Q9UBN7); experiment: HDAC 6 assay (BPS Bioscience kit); conditions: read-out: Percent Inhibition
T1 sequence (Q9UBN7 1-1215): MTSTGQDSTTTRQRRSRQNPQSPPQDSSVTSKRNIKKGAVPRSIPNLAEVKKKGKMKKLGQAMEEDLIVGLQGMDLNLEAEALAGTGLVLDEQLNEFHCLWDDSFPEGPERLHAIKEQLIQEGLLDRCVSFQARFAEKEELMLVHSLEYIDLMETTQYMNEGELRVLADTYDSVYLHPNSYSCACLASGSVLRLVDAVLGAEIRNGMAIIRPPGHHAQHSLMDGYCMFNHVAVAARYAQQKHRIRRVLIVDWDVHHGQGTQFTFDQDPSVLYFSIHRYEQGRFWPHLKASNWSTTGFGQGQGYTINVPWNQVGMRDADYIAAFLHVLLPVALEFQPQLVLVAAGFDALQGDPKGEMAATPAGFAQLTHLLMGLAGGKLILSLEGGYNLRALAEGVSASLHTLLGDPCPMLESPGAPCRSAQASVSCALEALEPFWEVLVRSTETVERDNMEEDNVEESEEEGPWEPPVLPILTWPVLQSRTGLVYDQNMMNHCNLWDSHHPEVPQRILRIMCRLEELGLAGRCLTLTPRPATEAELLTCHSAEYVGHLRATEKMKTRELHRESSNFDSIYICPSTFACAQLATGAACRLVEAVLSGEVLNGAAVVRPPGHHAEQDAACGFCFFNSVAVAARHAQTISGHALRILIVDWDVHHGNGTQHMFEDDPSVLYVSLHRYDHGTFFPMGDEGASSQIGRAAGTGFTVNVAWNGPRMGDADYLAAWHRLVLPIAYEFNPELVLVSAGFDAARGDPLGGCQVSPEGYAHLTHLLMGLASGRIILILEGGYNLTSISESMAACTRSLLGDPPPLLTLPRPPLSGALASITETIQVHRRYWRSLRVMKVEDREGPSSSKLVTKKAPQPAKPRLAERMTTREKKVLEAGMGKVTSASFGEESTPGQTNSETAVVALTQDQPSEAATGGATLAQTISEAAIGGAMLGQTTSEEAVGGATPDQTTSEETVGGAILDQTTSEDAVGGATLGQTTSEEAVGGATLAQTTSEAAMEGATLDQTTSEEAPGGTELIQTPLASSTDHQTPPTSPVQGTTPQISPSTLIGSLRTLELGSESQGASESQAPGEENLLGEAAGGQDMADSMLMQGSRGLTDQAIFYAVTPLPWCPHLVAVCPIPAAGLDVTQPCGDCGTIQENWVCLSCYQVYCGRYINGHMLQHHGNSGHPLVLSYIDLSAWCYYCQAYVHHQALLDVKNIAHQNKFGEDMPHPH
Description: (§1) For HDAC 4-8 assays, kits from BPS Bioscience (https://bpsbioscience.com/) were used and their recommended protocols followed. […] Each compound was dissolved in DMSO to generate a 100 μM stock solution, then diluted using HPLC-grade water to prepare 10 μM, 2 μM, and 1 μM solutions. These solutions were used for the assays. […] Assays utilized a BioTek Synergy H1 microplate reader and black Nunc MicroWell 96-well optical-bottom plates with polymer base.
(§2) HDAC 4 (and, by analogy, HDAC 5, 6, 7, and 8): 40 μL of the parent solution was added to each well on the plate. The parent solution was prepared from a fluorogenic HDAC substrate, a 1 mg/mL solution of bovine serum albumin (BSA) in water, and HDAC assay buffer. 5 μL of the inhibitor buffer (10% DMSO in water) was added to the wells designated as “Blank” and “Positive Control” (no inhibitor). 5 μL of the test compound was added to each well designated as “Test Inhibitor”. Different concentrations of TSA (for a standard curve) was added to each well designated as “Standard.” 5 μL of HDAC assay buffer was added to the “Blank” wells. Then, 5 μL of HDAC 4 human recombinant enzyme was added to the wells designated as “Positive Control”, “Test Inhibitor”, and “Standard.” The plate was then warmed in an incubator at 37° C. with a rocker platform for 30 min After the incubation, 50 μL of 2×HDAC Developer solution was added to each well. The plate was returned to the incubator and was shaken on the rocker for an additional 15 min. at room temperature. Afterwards, the plate was analyzed using a BioTek Synergy H1 microplate reader, taking two independent readings per well that were subsequently averaged.

HDAC 8 = biological target: T2, HDAC 8 (Homo sapiens, UniProt Q9BY41); experiment: HDAC 8 assay (BPS Bioscience kit); conditions: read-out: Percent Inhibition
T2 sequence (Q9BY41 1-377): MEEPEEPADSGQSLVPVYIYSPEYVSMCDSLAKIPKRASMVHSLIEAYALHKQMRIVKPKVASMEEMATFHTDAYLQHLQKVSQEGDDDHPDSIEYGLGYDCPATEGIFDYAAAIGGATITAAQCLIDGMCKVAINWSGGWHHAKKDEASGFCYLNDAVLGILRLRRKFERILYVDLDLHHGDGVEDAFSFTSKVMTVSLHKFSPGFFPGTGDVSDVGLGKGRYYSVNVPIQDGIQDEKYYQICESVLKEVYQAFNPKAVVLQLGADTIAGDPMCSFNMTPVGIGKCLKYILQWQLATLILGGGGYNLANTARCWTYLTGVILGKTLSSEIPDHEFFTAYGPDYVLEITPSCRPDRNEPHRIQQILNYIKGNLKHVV
Description: as §1, §2

**Q.** How did the “Effectiveness compared to MAL1-271 (Less/Similar/More)” value [1] turn out when `CCOC(=O)C1=CN(Cc2ccc(C(=O)NO)cc2)S(=O)(=O)N(C)C1c1ccc(Cl)cc1Cl` (single isomer, unassigned; (+)) [(+)-951_66, (+)-Ethyl 3-(2,4-dichlorophenyl)-6-(4-(hydroxycarbamoyl)benzyl)-2-methyl-3,6-dihydro-2H-1,2,6-thiadiazine-4-carboxylate 1,1-dioxide] was run?
**A.** Less

**Q.** `CCOC(=O)C1=CN(Cc2ccc(C(=O)NO)cc2)S(=O)(=O)N(C)C1c1ccc(Cl)cc1Cl` (single isomer, unassigned; (-)) [(−)-951_67, (−)-Ethyl 3-(2,4-dichlorophenyl)-6-(4-(hydroxycarbamoyl)benzyl)-2-methyl-3,6-dihydro-2H-1,2,6-thiadiazine-4-carboxylate 1,1-dioxide] was tested. Which “Effectiveness compared to MAL1-271 (Less/Similar/More)” value [1] did it give?
**A.** Similar

**Q.** `CCOC(=O)C1=CN(CCCC(=O)OC)S(=O)(=O)NC1c1ccc(Cl)cc1Cl` (stereo not drawn) [Compound 5g, Ethyl 3-(2,4-dichlorophenyl)-6-(4-methoxy-4-oxobutyl)-3,6-dihydro-2H-1,2,6-thiadiazine-4-carboxylate 1,1-dioxide] was tested. Which “Effect on aggregate suppression compared to the MAL1-271 positive control” value [1] did it give?
**A.** less effective

**Q.** For `CCOC(=O)C1=CN(Cc2ccc(CO)cc2)S(=O)(=O)NC1c1ccc(Cl)cc1Cl` (stereo not drawn) [Compound 5h, Ethyl 3-(2,4-dichlorophenyl)-6-(4-(hydroxymethyl)benzyl)-3,6-dihydro-2H-1,2,6-thiadiazine-4-carboxylate 1,1-dioxide], which “Effect on aggregate suppression compared to the MAL1-271 positive control” value [1] is on record?
**A.** less effective

**Q.** With `CCOC(=O)C1=CN(C(=O)OC(C)(C)C)S(=O)(=O)N(Cc2ccc(C(=O)OC(C)(C)C)cc2)C1c1ccc(Cl)cc1Cl` (stereo not drawn) [Compound 6i, 2-(tert-Butyl) 4-ethyl 6-(4-(tert-butoxycarbonyl)benzyl)-5-(2,4-dichlorophenyl)-5,6-dihydro-2H-1,2,6-thiadiazine-2,4-dicarboxylate 1,1-dioxide] as the compound, how does the “Effect on aggregate suppression compared to the MAL1-271 positive control” value [1] read?
**A.** less effective

**Q.** Which “Effect on aggregate suppression compared to the MAL1-271 positive control” value [1] does the source give for `CCOC(=O)C1=CN(Cc2ccc(C(=O)O)cc2)S(=O)(=O)NC1c1ccc(Cl)cc1Cl` (stereo not drawn) [Compound 7h, 4-((5-(2,4-Dichlorophenyl)-4-(ethoxycarbonyl)-1,1-dioxido-5,6-dihydro-2H-1,2,6-thiadiazin-2-yl)methyl)benzoic acid] here?
**A.** less effective

**Q.** How did the “Effect on aggregate suppression compared to the MAL1-271 positive control” value [1] turn out when `O=C(O)CCCN1C=C(C(=O)O)C(c2ccc(Cl)cc2Cl)NS1(=O)=O` (stereo not drawn) [Compound 9g, 6-(3-Carboxypropyl)-3-(2,4-dichlorophenyl)-3,6-dihydro-2H-1,2,6-thiadiazine-4-carboxylic acid 1,1-dioxide] was run?
**A.** less effective

**Q.** How did the “Percent inhibition HDAC 1-3” value (HDAC 1-3) turn out when `CCOC(=O)C1=CN(CCCC(=O)NO)S(=O)(=O)NC1c1ccc(Cl)cc1Cl` (stereo not drawn) [Compound 12g, Ethyl 3-(2,4-dichlorophenyl)-6-(4-(hydroxyamino)-4-oxobutyl)-3,6-dihydro-2H-1,2,6-thiadiazine-4-carboxylate 1,1-dioxide] was run?
**A.** 1%

**Q.** `CCOC(=O)C1=CN(Cc2ccc(C(=O)NO)cc2)S(=O)(=O)NC1c1ccc(Cl)cc1Cl` (stereo not drawn) [Compound 12h, Ethyl 3-(2,4-dichlorophenyl)-6-(4-(hydroxycarbamoyl)benzyl)-3,6-dihydro-2H-1,2,6-thiadiazine-4-carboxylate 1,1-dioxide] was tested. Which “Percent inhibition HDAC 1-3” value (HDAC 1-3) did it give?
**A.** 22%

**Q.** `COC(=O)CCCN1C=C(C(=O)OCc2ccccc2)C(c2ccc(Cl)cc2Cl)NS1(=O)=O` (stereo not drawn) [Compound 18g, Benzyl 3-(2,4-dichlorophenyl)-6-(4-methoxy-4-oxobutyl)-3,6-dihydro-2H-1,2,6-thiadiazine-4-carboxylate 1,1-dioxide] was tested. Which “Effect on aggregate suppression compared to the MAL1-271 positive control” value [1] did it give?
**A.** less effective

**Q.** How did the “Effectiveness compared to MAL1-271 (Less/Similar/More)” value [1] turn out when `CCOC(=O)C1=CN(Cc2ccc(C(=O)NO)cc2)S(=O)(=O)N(C)C1c1ccc(Cl)cc1Cl` (stereo not drawn) [Compound 930_62, Ethyl 3-(2,4-dichlorophenyl)-6-(4-(hydroxycarbamoyl)benzyl)-2-methyl-3,6-dihydro-2H-1,2,6-thiadiazine-4-carboxylate 1,1-dioxide] was run?
**A.** More

**Q.** What about the “Effectiveness compared to the MAL1-271 positive control” value [1] of the same compound?
**A.** more effective

**Q.** Which “Effectiveness compared to MAL1-271 (Less/Similar/More)” value [1] does the source give for `CCOC(=O)C1=CN(Cc2ccc(C(=O)NO)cc2)S(=O)(=O)N(CC2CC2)C1c1ccc(Cl)cc1Cl` (stereo not drawn) [Compound 930_63, Ethyl 2-(cyclopropylmethyl)-3-(2,4-dichlorophenyl)-6-(4-(hydroxycarbamoyl)benzyl)-3,6-dihydro-2H-1,2,6-thiadiazine-4-carboxylate 1,1-dioxide] here?
**A.** More

**Q.** What about the “Effectiveness compared to the MAL1-271 positive control” value [1] of the same compound?
**A.** more effective

**Q.** With `O=C(O)CCCN1C=C(C(=O)OCc2ccc(Cl)cc2Cl)C(c2ccc(Cl)cc2Cl)NS1(=O)=O` (stereo not drawn) [Compound 959_30] as the compound, how does the “Effectiveness compared to MAL1-271 (Less/Similar/More)” value [1] read?
**A.** Similar

**Q.** How did the “Effectiveness compared to MAL1-271 (Less/Similar/More)” value [1] turn out when `O=C(CCCN1C=C(C(=O)OCc2ccccc2)C(c2ccc(Cl)cc2Cl)NS1(=O)=O)OCCN1CCOCC1` (stereo not drawn) [Compound 959_74, Benzyl 3-(2,4-dichlorophenyl)-6-(4-(2-morpholinoethoxy)-4-oxobutyl)-3,6-dihydro-2H-1,2,6-thiadiazine-4-carboxylate 1,1-dioxide] was run?
**A.** Similar

**Q.** How did the inhibition at 0.001 µM (HDAC 6) turn out when `O=C(CCCCCCC(=O)Nc1ccccc1)NO` [SAHA, Vorinostat] was run?
**A.** 6%

**Q.** What about the inhibition at 0.005 µM (HDAC 6) of the same compound?
**A.** 25%

**Q.** What about the inhibition at 0.01 µM (HDAC 6) of the same compound?
**A.** 47%

**Q.** What about the inhibition at 0.5 µM (HDAC 6) of the same compound?
**A.** 94%

**Q.** And the inhibition at 0.05 µM (HDAC 8)?
**A.** 54%

**Q.** And the inhibition at 0.2 µM (HDAC 8)?
**A.** 67%

**Q.** And the inhibition at 1 µM (HDAC 8)?
**A.** 70%

**Q.** And the inhibition at 2 µM (HDAC 8)?
**A.** 86%

**Q.** And the inhibition at 5 µM (HDAC 8)?
**A.** 96%

**Q.** With `CC(/C=C/C(=O)NO)=C\[C@@H](C)C(=O)c1ccc(N(C)C)cc1` [TSA, Trichostatin A] as the compound, how does the “Percent Inhibition” value (HDAC 1-3; HDAC 1-3, standard at 0.0025 uM) read?
**A.** NIA

**Q.** And the “Percent Inhibition” value (HDAC 1-3; HDAC 1-3, standard at 0.005 uM)?
**A.** NIA

**Q.** What about the “Percent Inhibition” value (HDAC 1-3; HDAC 1-3, standard at 0.05 uM) of the same compound?
**A.** 33%

**Q.** What about the “Percent Inhibition” value (HDAC 1-3; HDAC 1-3, standard at 0.1 uM) of the same compound?
**A.** 49%

**Q.** And the “Percent Inhibition” value (HDAC 1-3; HDAC 1-3, standard at 1 uM)?
**A.** 68%
